Test results: patent US20250122225A1, “MASP-2 INHIBITORS AND METHODS OF USE” (Omeros Corporation, priority 2023, published 2025)
Structures can show the parent of a compound that is named as a salt.

Key:
MASP-2 (CCP1-CCP2-SP) = target: T1, MASP-2 (CCP1-CCP2-SP) (Homo sapiens, UniProt O00187); assay: Enzymatic assay for MASP-2 inhibitory activity (fluorogenic substrate); format: biochemical
T1 construct: 15 μL of Enzyme MASP-2 (CCP1-CCP2-SP) in Assay Buffer
Procedure, shortened: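 MASP-2 (CCP1-CCP2-SP) cleaved a fluorogenic substrate based on the C2 cleavage site in 20 mM HEPES pH 7.4, 140 mM NaCl, 0.1% Tween 20 at room temperature. After 20 min the reaction was stopped with 0.1 M acetic acid and fluorescence read. % activity was normalized to DMSO-only and no-enzyme controls; IC50 taken as Ki.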

human α-thrombin = target: T2, human α-thrombin (Homo sapiens, UniProt P00734); assay: Enzymatic assay for thrombin (fluorogenic peptide substrate Boc-VPR-AMC); format: biochemical
T2 construct: enzyme (human α-thrombin (BioPharm® Lab.)) in assay buffer; purchased BioPharm® Lab
Procedure, shortened: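 Human α-thrombin was run with the fluorogenic substrate Boc-VPR-AMC in 20 mM Hepes pH 7.4, 140 mM NaCl, 0.1% Tween 20 at room temperature for 20 min, then stopped with 0.1 M acetic acid. % activity was normalized to DMSO and no-enzyme controls. Under linear conditions IC50 equalled Ki, except for tight-binding inhibitors.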

T1 sequence (O00187 445-686 limits assumed): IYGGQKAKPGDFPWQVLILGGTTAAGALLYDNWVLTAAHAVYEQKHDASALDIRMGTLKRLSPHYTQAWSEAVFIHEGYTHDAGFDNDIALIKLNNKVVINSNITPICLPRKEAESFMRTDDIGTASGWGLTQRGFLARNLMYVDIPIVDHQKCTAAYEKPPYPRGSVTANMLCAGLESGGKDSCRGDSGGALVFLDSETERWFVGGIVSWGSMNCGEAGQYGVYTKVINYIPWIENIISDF
T1 sequence (O00187 287-444 partner limits assumed): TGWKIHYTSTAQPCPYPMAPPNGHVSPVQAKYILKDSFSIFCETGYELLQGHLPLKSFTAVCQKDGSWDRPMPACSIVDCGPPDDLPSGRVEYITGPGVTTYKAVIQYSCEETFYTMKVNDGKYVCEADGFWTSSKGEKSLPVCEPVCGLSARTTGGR

Row | Structure (SMILES) | Ki (MASP-2 (CCP1-CCP2-SP)) [nM] | Ki (human α-thrombin) [nM]
1 | C[C@H](NC(=O)[C@@H]1CCc2cnc(N[C@@H](c3ccccc3)C(C)(C)C)c(=O)n21)c1cc2c(s1)CNC2 [Compound 270, (S)-N-((S)-1-(5,6-dihydro-4H-thieno[2,3-c]pyrrol-2-yl)ethyl)-3-(((R)-2,2-dimethyl-1-phenylpropyl)amino)-4-oxo-4,6,7,8-tetrahydropyrrolo[1,2-a]pyrazine-6-carboxamide trifluoroacetate] | 2500 to 10000 | 10000 to 25000
2 | O=C(NCc1cc2c(s1)CNC2)[C@@H]1CCc2cnc(N3CC(c4ccccc4)C3)c(=O)n21 [Compound 119, (S)—N-((5,6-dihydro-4H-thieno[2,3-c]pyrrol-2-yl)methyl)-4-oxo-3-(3-phenylazetidin-1-yl)-4,6,7,8-tetrahydropyrrolo[1,2-a]pyrazine-6-carboxamide] | 2500 to 10000 | > 25000
3 | Cc1cc(F)cc(CNc2nc(Cl)c3n(c2=O)[C@H](C(=O)NCc2cnc4ccccn24)CC3)c1 [Compound 165, (S)-1-chloro-3-((3-fluoro-5-methylbenzyl)amino)-N-(imidazo[1,2-a]pyridin-3-ylmethyl)-4-oxo-4,6,7,8-tetrahydropyrrolo[1,2-a]pyrazine-6-carboxamide trifluoroacetate] | 10000 to 25000 | > 25000
4 | Cc1cc(C)cc([C@@H](CO)Nc2ncc3n(c2=O)[C@H](C(=O)NCc2cc4c(s2)CNC4)CC3)c1 [Compound 92, (S)-N-((5,6-dihydro-4H-thieno[2,3-c]pyrrol-2-yl)methyl)-3-(((S)-1-(3,5-dimethylphenyl)-2-hydroxyethyl)amino)-4-oxo-4,6,7,8-tetrahydropyrrolo[1,2-a]pyrazine-6-carboxamide] | < 500 | < 500
5 | O=C(NCc1cc2cnccc2[nH]1)[C@@H]1CCc2c(Cl)nc(NCC3CCc4ccccc4C3)c(=O)n21 (stereo partly drawn) [Compound 145, (6S)-N-((1H-pyrrolo[3,2-c]pyridin-2-yl)methyl)-1-chloro-4-oxo-3-(((1,2,3,4-tetrahydronaphthalen-2-yl)methyl)amino)-4,6,7,8-tetrahydropyrrolo[1,2-a]pyrazine-6-carboxamide] | < 500 | > 25000
6 | Cc1cc(C)cc(CNc2ncc3n(c2=O)[C@H](C(=O)NCc2ccc4[nH]ncc4c2)CC3)c1 [Compound 281, (S)—N-((1H-indazol-5-yl)methyl)-3-((3,5-dimethylbenzyl)amino)-4-oxo-4,6,7,8-tetrahydropyrrolo[1,2-a]pyrazine-6-carboxamide] | < 500 | 500 to 2500
7 | Cc1cc(F)cc(CNc2nc(-c3cnn(C(F)F)c3)c3n(c2=O)[C@H](C(=O)NCc2ccc(N)nc2C)CC3)c1 [Compound 214, (S)—N-((6-amino-2-methylpyridin-3-yl)methyl)-1-(1-(difluoromethyl)-1H-pyrazol-4-yl)-3-((3-fluoro-5-methylbenzyl)amino)-4-oxo-4,6,7,8-tetrahydropyrrolo[1,2-a]pyrazine-6-carboxamide trifluoroacetate] | < 500 | > 25000
8 | COc1cc(C)cc(CNc2ncc3n(c2=O)[C@H](C(=O)NCc2ccc(N)nc2C)CC3)c1 [Compound 49, (S)-N-((6-amino-2-methylpyridin-3-yl)methyl)-3-((3-methoxy-5-methylbenzyl)amino)-4-oxo-4,6,7,8-tetrahydropyrrolo[1,2-a]pyrazine-6-carboxamide] | < 500 | < 500

Second part, the compound after the results:

Row | Ki (MASP-2 (CCP1-CCP2-SP)) [nM] | Ki (human α-thrombin) [nM] | Structure (SMILES)
9 | < 500 | 2500 to 10000 | COCCCCNc1nc(Cl)c2n(c1=O)[C@H](C(=O)NCc1ccc(N)nc1C)CC2 [Compound 2, (S)-N-((6-amino-2-methylpyridin-3-yl)methyl)-1-chloro-3-((4-methoxybutyl)amino)-4-oxo-4,6,7,8-tetrahydropyrrolo[1,2-a]pyrazine-6-carboxamide]
10 | < 500 | 2500 to 10000 | O=C(NCc1cc2c(s1)CNC2)[C@@H]1CC2(CC2)c2cnc(NCc3ccccc3)c(=O)n21 [Compound 127, (S)-3′-(benzylamino)-N-((5,6-dihydro-4H-thieno[2,3-c]pyrrol-2-yl)methyl)-4′-oxo-6′,7′-dihydro-4′H-spiro[cyclopropane-1,8′-pyrrolo[1,2-a]pyrazine]-6′-carboxamide trifluoroacetate]
11 | < 500 | < 500 | Cc1nc(N)ccc1CNC(=O)[C@@H]1CCc2cnc(NCc3cccc(S(C)(=O)=O)c3)c(=O)n21 [Compound 99, (S)—N-((6-amino-2-methylpyridin-3-yl)methyl)-3-((3-(methylsulfonyl)benzyl)amino)-4-oxo-4,6,7,8-tetrahydropyrrolo[1,2-a]pyrazine-6-carboxamide trifluoroacetate]
12 | < 500 | 2500 to 10000 | Cc1cccc(CNc2nc(Cl)c3n(c2=O)[C@H](C(=O)NCc2cc4c(s2)CNC4)CC3)c1C [Compound 33, (S)-1-chloro-N-((5,6-dihydro-4H-thieno[2,3-c]pyrrol-2-yl)methyl)-3-((2,3-dimethylbenzyl)amino)-4-oxo-4,6,7,8-tetrahydropyrrolo[1,2-a]pyrazine-6-carboxamide]
13 | < 500 | < 500 | [2H]C([2H])([2H])c1nc(NCc2cc(C)cc(F)c2)c(=O)n2c1CC[C@H]2C(=O)NCc1ccc(N)nc1C [Compound 218, (S)-N-((6-amino-2-methylpyridin-3-yl)methyl)-3-((3-fluoro-5-methylbenzyl)amino)-1-(methyl-d3)-4-oxo-4,6,7,8-tetrahydropyrrolo[1,2-a]pyrazine-6-carboxamide trifluoroacetate]
14 | < 500 | 10000 to 25000 | COCCCCNc1nc(Cl)c2n(c1=O)[C@H](C(=O)NCc1cc3cnccc3[nH]1)CC2 [Compound 22, (S)-N-((1H-pyrrolo[3,2-c]pyridin-2-yl)methyl)-1-chloro-3-((4-methoxybutyl)amino)-4-oxo-4,6,7,8-tetrahydropyrrolo[1,2-a]pyrazine-6-carboxamide]
15 | < 500 | 500 to 2500 | Cc1cccc([C@H](C)Nc2ncc3n(c2=O)[C@H](C(=O)NCc2cc4cnccc4[nH]2)CC3)c1 [Compound 74, (S)-N-((1H-pyrrolo[3,2-c]pyridin-2-yl)methyl)-4-oxo-3-(((S)-1-(m-tolyl)ethyl)amino)-4,6,7,8-tetrahydropyrrolo[1,2-a]pyrazine-6-carboxamide]
16 | < 500 | > 25000 | O=C(NCc1cc2cnccc2[nH]1)[C@@H]1CCc2c(Cl)nc(NCc3cccc(-c4ccccc4)c3)c(=O)n21 [Compound 143, (S)—N-((1H-pyrrolo[3,2-c]pyridin-2-yl)methyl)-3-(([1,1′-biphenyl]-3-ylmethyl)amino)-1-chloro-4-oxo-4,6,7,8-tetrahydropyrrolo[1,2-a]pyrazine-6-carboxamide]
17 | < 500 | < 500 | Cc1nc(N)ccc1CNC(=O)[C@@H]1CCc2cnc(NCc3cccc(-n4cccn4)c3)c(=O)n21 [Compound 169, (S)-3-((3-(1H-pyrazol-1-yl)benzyl)amino)-N-((6-amino-2-methylpyridin-3-yl)methyl)-4-oxo-4,6,7,8-tetrahydropyrrolo[1,2-a]pyrazine-6-carboxamide trifluoroacetate]
18 | < 500 | 500 to 2500 | Cc1ccc(C)c(CNc2ncc3n(c2=O)[C@H](C(=O)N[C@H](C)c2ccc(N)nc2C)CC3)c1 [Compound 237]
